Laboratory results taken from PubChem BioAssay AID328 (DTP/NCI, 2004).
Where “and” joins values, the source holds several entries; their conditions need not be identical. Equal entries are not always repeated. Toxic doses and inconclusive results are not listed.

Tested on: BDF1 mice, P388 leukemia ip, median survival T/C
Assay: NCI In Vivo Anticancer Drug Screen. Data for tumor model P388 Leukemia (intraperitoneal) in B6D2F1 (BDF1) mice
Conditions: endpoint: median survival time, higher = longer survival
Outline: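 Reported as T/C, where T is the survival measurement in dosed animals and C the same measurement in vehicle controls.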

[1] = dose: 100.0 mg/kg/injection, schedule: Q04DX003 (ip), vehicle: saline sonified
[2] = dose: 200.0 mg/kg/injection, schedule: Q04DX003 (ip), vehicle: saline sonified
[3] = dose: 12.5 mg/kg/injection, schedule: Q04DX003 (ip), vehicle: saline with Tween-80
[4] = dose: 25.0 mg/kg/injection, schedule: Q01DX009 (ip), vehicle: saline with Tween-80
[5] = dose: 25.0 mg/kg/injection, schedule: Q04DX003 (ip), vehicle: saline with Tween-80
[6] = dose: 12.5 mg/kg/injection, schedule: Q01DX009 (ip), vehicle: Klucel (hydroxypropylcellulose) (HPC)
[7] = dose: 25.0 mg/kg/injection, schedule: Q01DX009 (ip), vehicle: Klucel (hydroxypropylcellulose) (HPC)
[8] = dose: 50.0 mg/kg/injection, schedule: Q01DX009 (ip), vehicle: Klucel (hydroxypropylcellulose) (HPC)
[9] = dose: 100.0 mg/kg/injection, schedule: Q01DX009 (ip), vehicle: saline with Tween-80
[10] = dose: 100.0 mg/kg/injection, schedule: Q04DX003 (ip), vehicle: saline with Tween-80
[11] = dose: 200.0 mg/kg/injection, schedule: Q01DX009 (ip), vehicle: saline with Tween-80
[12] = dose: 200.0 mg/kg/injection, schedule: Q04DX003 (ip), vehicle: saline with Tween-80
[13] = dose: 400.0 mg/kg/injection, schedule: Q01DX009 (ip), vehicle: saline with Tween-80
[14] = dose: 400.0 mg/kg/injection, schedule: Q04DX003 (ip), vehicle: saline with Tween-80
[15] = dose: 50.0 mg/kg/injection, schedule: Q01DX005 (ip), vehicle: saline with Tween-80
[16] = dose: 100.0 mg/kg/injection, schedule: Q01DX005 (ip), vehicle: saline with Tween-80
[17] = dose: 200.0 mg/kg/injection, schedule: Q01DX005 (ip), vehicle: saline with Tween-80

In the case of `CCN(CC)CCCC(C)Nc1c2ccc(Cl)cc2nc2ccc(OC)cc12` (centres undefined), the T/C (dose: 9.37 mg/kg/injection, schedule: Q01DX009 (ip), vehicle: saline) is reported as 86 % of control, the T/C (dose: 18.75 mg/kg/injection, schedule: Q01DX009 (ip), vehicle: saline) is reported as 90 % of control and the T/C (dose: 37.5 mg/kg/injection, schedule: Q01DX009 (ip), vehicle: saline) is reported as 100 % of control and 109 % of control. For the same compound, the T/C (dose: 75.0 mg/kg/injection, schedule: Q01DX009 (ip), vehicle: saline) was 118 % of control and 120 % of control, the T/C (dose: 75.0 mg/kg/injection, schedule: Q04DX003 (ip), vehicle: saline) was 104 % of control and the T/C (dose: 99.0 mg/kg/injection, schedule: Q04DX003 (ip), vehicle: saline) was 150 % of control. For the same compound, the T/C (dose: 150.0 mg/kg/injection, schedule: Q04DX003 (ip), vehicle: saline) was 172 % of control.
In the case of `CC[C@@H]1CN(C)[C@H]2Cc3c([nH]c4ccccc34)C(=O)C[C@H]1C2C(=O)OC` (some centres undefined), the T/C (dose: 100.0 mg/kg/injection, schedule: Q01DX009 (ip), vehicle: saline sonified) is reported as 90 % of control, the T/C [1] is reported as 100 % of control and the T/C (dose: 200.0 mg/kg/injection, schedule: Q01DX009 (ip), vehicle: saline sonified) is reported as 115 % of control. For the same compound, the T/C [2] was 100 % of control, the T/C (dose: 400.0 mg/kg/injection, schedule: Q01DX009 (ip), vehicle: saline sonified) was 100 % of control and the T/C (dose: 400.0 mg/kg/injection, schedule: Q04DX003 (ip), vehicle: saline sonified) was 90 % of control.
`S=c1nc[nH]c2c1ncn2CN1CCCCC1` was tested, and the T/C (dose: 66.0 mg/kg/injection, schedule: Q01DX009 (ip), vehicle: saline with Tween-80) was 122 % of control and the T/C (dose: 150.0 mg/kg/injection, schedule: Q01DX009 (ip), vehicle: saline with Tween-80) was 154 % of control.
In the case of `O=C(COc1cc(Cl)c(Cl)cc1Cl)OCCN(CCOC(=O)COc1cc(Cl)c(Cl)cc1Cl)C(=O)COc1ccc(Cl)cc1`, the T/C (dose: 100.0 mg/kg/injection, schedule: Q04DX003 (ip), vehicle: other) is reported as 100 % of control, the T/C (dose: 200.0 mg/kg/injection, schedule: Q04DX003 (ip), vehicle: other) is reported as 86 % of control and the T/C (dose: 400.0 mg/kg/injection, schedule: Q04DX003 (ip), vehicle: other) is reported as 100 % of control.
In the case of `FC(F)(F)C1=N/C(=C2\N=C(C(F)(F)F)N=C2Cl)C(Cl)=N1`, the T/C (dose: 0.39 mg/kg/injection, schedule: Q04DX003 (ip), vehicle: saline with Tween-80) is reported as 100 % of control, the T/C (dose: 0.78 mg/kg/injection, schedule: Q04DX003 (ip), vehicle: saline with Tween-80) is reported as 114 % of control and the T/C (dose: 1.56 mg/kg/injection, schedule: Q01DX009 (ip), vehicle: saline with Tween-80) is reported as 104 % of control. The T/C (dose: 1.56 mg/kg/injection, schedule: Q04DX003 (ip), vehicle: saline with Tween-80) was 100 % of control and 110 % of control, the T/C (dose: 3.12 mg/kg/injection, schedule: Q01DX009 (ip), vehicle: saline with Tween-80) was 116 % of control and the T/C (dose: 3.12 mg/kg/injection, schedule: Q04DX003 (ip), vehicle: saline with Tween-80) was 96 % of control and 100 % of control. For the same compound, the T/C (dose: 6.25 mg/kg/injection, schedule: Q01DX009 (ip), vehicle: saline with Tween-80) was 116 % of control, the T/C (dose: 6.25 mg/kg/injection, schedule: Q04DX003 (ip), vehicle: saline with Tween-80) was 91 % of control and 100 % of control and the T/C (dose: 12.5 mg/kg/injection, schedule: Q01DX009 (ip), vehicle: saline with Tween-80) was 111 % of control. For the same compound, the T/C [3] was 88 % of control, the T/C [4] was 94 % of control and the T/C [5] was 88 % of control.
For `CCCn1cnc2c(=S)nc(N)[nH]c21`, the T/C (dose: 6.25 mg/kg/injection, schedule: Q01DX009 (ip), vehicle: Klucel (hydroxypropylcellulose) (HPC)) was 100 % of control, the T/C [6] was 86 % of control and the T/C [7] was 86 % of control. For the same compound, the T/C (dose: 29.0 mg/kg/injection, schedule: Q04DX003 (ip), vehicle: Klucel (hydroxypropylcellulose) (HPC)) was 110 % of control, the T/C (dose: 45.0 mg/kg/injection, schedule: Q04DX003 (ip), vehicle: Klucel (hydroxypropylcellulose) (HPC)) was 115 % of control and the T/C [8] was 105 % of control. For the same compound, the T/C (dose: 150.0 mg/kg/injection, schedule: Q04DX003 (ip), vehicle: Klucel (hydroxypropylcellulose) (HPC)) was 150 % of control and the T/C (dose: 200.0 mg/kg/injection, schedule: Q04DX003 (ip), vehicle: Klucel (hydroxypropylcellulose) (HPC)) was 118 % of control.
For `ClC1CC[N-]CC1.ClC1CC[N-]CC1.[Cl][Pt+2]([Cl])([Cl])[Cl]`, the T/C [6] was 182 % of control, the T/C [7] was 221 % of control and the T/C [8] was 115 % of control.
For `CC(=O)Nc1ccc(S(=O)(=O)SC(F)(F)F)cc1`, the T/C (dose: 3.13 mg/kg/injection, schedule: Q01DX010 (ip), vehicle: saline) was 100 % of control, the T/C (dose: 6.25 mg/kg/injection, schedule: Q01DX010 (ip), vehicle: saline) was 104 % of control and the T/C (dose: 12.5 mg/kg/injection, schedule: Q01DX010 (ip), vehicle: saline) was 100 % of control.
In the case of `C(=C\c1ccccc1)/CSc1ncnc2nc[nH]c12`, the T/C [9] is reported as 104 % of control, the T/C [10] is reported as 90 % of control and the T/C [11] is reported as 104 % of control. The T/C [12] was 104 % of control, the T/C [13] was 100 % of control and the T/C [14] was 100 % of control.
For `Cn1ncc2c(NCCc3ccccc3)ncnc21`, the T/C [4] was 100 % of control and the T/C (dose: 50.0 mg/kg/injection, schedule: Q01DX009 (ip), vehicle: saline with Tween-80) was 100 % of control.
`Clc1ccc(C[P+](c2ccccc2)(c2ccccc2)c2ccccc2)c(Cl)c1` was tested, and the T/C (dose: 1.4 mg/kg/injection, schedule: Q01DX009 (ip), vehicle: saline) was 120 % of control and the T/C (dose: 7.5 mg/kg/injection, schedule: Q01DX009 (ip), vehicle: saline) was 115 % of control.
For `COc1ccc(OC)c(Br)c1`, the T/C [9] was 110 % of control, the T/C [10] was 100 % of control and the T/C (dose: 178.0 mg/kg/injection, schedule: Q01DX009 (ip), vehicle: saline with Tween-80) was 118 % of control. For the same compound, the T/C [11] was 120 % of control, the T/C [12] was 100 % of control and the T/C (dose: 266.0 mg/kg/injection, schedule: Q01DX009 (ip), vehicle: saline with Tween-80) was 118 % of control. For the same compound, the T/C [13] was 109 % of control and the T/C [14] was 113 % of control.
`Cc1cnc(=S)n(-c2ccccc2)c1` was tested, and the T/C [3] was 95 % of control, the T/C [5] was 104 % of control and the T/C (dose: 50.0 mg/kg/injection, schedule: Q04DX003 (ip), vehicle: saline with Tween-80) was 98 % of control.
For `C=C1C(=O)O[C@H]2C/C(C)=C/CC/C(CO)=C/[C@@H](O)[C@H]12`, the T/C (dose: 5.5 mg/kg/injection, schedule: Q01DX009 (ip), vehicle: alcohol) was 110 % of control, the T/C (dose: 33.0 mg/kg/injection, schedule: Q01DX009 (ip), vehicle: alcohol) was 120 % of control and the T/C (dose: 50.0 mg/kg/injection, schedule: Q01DX009 (ip), vehicle: alcohol) was 95 % of control.
With `Nc1nc(CNc2ccccc2)nc(Nc2ccccc2)n1` the T/C (dose: 50.0 mg/kg/injection, schedule: Q04DX003 (ip), vehicle: saline sonified) was 100 % of control, the T/C [1] was 100 % of control and the T/C [2] was 105 % of control.
In the case of `O=C1CN(C2CCCCC2)CC(=O)N2C(c3ccccc3)CCCN12` (centres undefined), the T/C [15] is reported as 97 % of control, the T/C [16] is reported as 103 % of control and the T/C [17] is reported as 118 % of control.
In the case of `N#CC1=C(N)NC(=O)C(C(N)=O)C1c1ccccc1Cl` (centres undefined), the T/C [15] is reported as 89 % of control, the T/C [16] is reported as 92 % of control and the T/C [17] is reported as 92 % of control.
For `CC[n+]1ccc2cc(OC)c(OC)cc2c1Cc1ccc(OC)c(OC)c1`, the T/C (dose: 25.0 mg/kg/injection, schedule: Q01DX009 (ip), vehicle: saline) was 109 % of control, the T/C (dose: 50.0 mg/kg/injection, schedule: Q01DX009 (ip), vehicle: saline) was 118 % of control and the T/C (dose: 50.0 mg/kg/injection, schedule: Q04DX003 (ip), vehicle: saline) was 90 % of control. For the same compound, the T/C (dose: 100.0 mg/kg/injection, schedule: Q04DX003 (ip), vehicle: saline) was 104 % of control.
For `CC(=O)OC(C)(C)/C=C/C(=O)[C@](C)(O)[C@H]1[C@H](O)C[C@@]2(C)[C@@H]3CC=C4[C@@H](C[C@H](O)[C@H](O)C4(C)C)[C@]3(C)C(=O)C[C@]12C`, the T/C (dose: 80.0 mg/kg/injection, schedule: Q01DX010 (ip), vehicle: saline) was 109 % of control, the T/C (dose: 120.0 mg/kg/injection, schedule: Q01DX010 (ip), vehicle: saline) was 122 % of control and the T/C (dose: 180.0 mg/kg/injection, schedule: Q01DX010 (ip), vehicle: saline) was 118 % of control.
